Assay results taken from ChEMBL document CHEMBL3608217, “Discovery of novel bridged tetrahydronaphthalene derivatives as potent T/L-type calcium channel blockers” (Bioorg Med Chem Lett, 2015).
Converted amounts (≈) assume the structure as drawn.

Experiments:
[1] = target: Voltage-dependent L-type calcium channel subunit alpha-1C (Homo sapiens, UniProt Q13936); assay: Inhibition of recombinant Cav1.2 channel (unknown origin) expressed in HEK293 cells assessed as effect on calcium flux incubated for 3 mins by FLIPR assay; format: cell-based
[2] = target: Voltage-dependent T-type calcium channel subunit alpha-1H (Homo sapiens, UniProt O95180); assay: Inhibition of recombinant Cav3.2 channel (unknown origin) expressed in HEK293 cells assessed as effect on calcium flux incubated for 3 mins by FLIPR assay; format: cell-based
Heart = assay: Increase in coronary flow in Wistar rat Langendorff isolated perfused heart; format: functional, tissue-based
Cytochrome P450 3A4 [3] = target: T1, Cytochrome P450 3A4 (Homo sapiens, UniProt P08684); assay: Inhibition of CYP3A4 in human liver microsomes assessed as reduction in midazolam 1'-hydroxylation by LC-MS/MS method; format: ADME
[4] = Solubility in pH 7.0 buffer; format: physicochemical
[5] = target: Voltage-gated inwardly rectifying potassium channel KCNH2 (Homo sapiens, UniProt Q12809); assay: Inhibition of human ERG expressed in HEK cells by patch clamp assay
[6] = Cmax in Wistar rat at 10 mg/kg, po; format: ADME, organism-based; design: dose 10 mg/kg, route oral; settings: in vivo
Cytochrome P450 3A4 [7] = target: T1, Cytochrome P450 3A4; assay: Inhibition of CYP3A4 in human liver microsomes assessed as reduction in testosterone 6beta-hydroxylation by LC-MS/MS method; format: ADME
[8] = Solubility in Water at pH 4; format: physicochemical
[9] = AUC in Wistar rat at 10 mg/kg, po; format: ADME, organism-based; settings: in vivo
Cytochrome P450 3A4 [10] = target: T1, Cytochrome P450 3A4; assay: Time dependent inhibition of CYP3A4 in human liver microsomes assessed as reduction in testosterone 6beta-hydroxylation incubated for 60 mins in presence of NADPH generating system by LC-MS/MS method; format: ADME
Rattus norvegicus [11] = assay: Antihypertensive activity in freely moving conscious spontaneously hypertensive rat at assessed as time duration for reduction in mean arterial pressure at 10 mg/kg, po administered as single dose in morning at end of wake phase by telemetry; format: functional, Artery
[12] = Half life in Wistar rat at 10 mg/kg, po or 1 mg/kg, iv; format: ADME, organism-based; settings: in vivo
[13] = Oral bioavailability in Wistar rat at 10 mg/kg; format: ADME, organism-based; settings: in vivo
[14] = Clearance in Wistar rat at 10 mg/kg, po or 1 mg/kg, iv; format: ADME, organism-based; settings: in vivo
Cytochrome P450 2C9 = Cytochrome P450 2C9 (Homo sapiens, UniProt P11712); assay: Inhibition of CYP2C9 in human liver microsomes assessed as reduction in diclofenac 4'-hydroxylation by LC-MS/MS method; format: ADME
Rattus norvegicus [15] = assay: Antihypertensive activity in freely moving conscious spontaneously hypertensive rat at assessed as area between curve for reduction in mean arterial pressure at 10 mg/kg, po administered as single dose in morning at end of wake phase by telemetry; format: functional, Artery
Rattus norvegicus [16] = assay: Antihypertensive activity in freely moving conscious spontaneously hypertensive rat at assessed as reduction in mean arterial pressure at 10 mg/kg, po administered as single dose in morning at end of wake phase measured after 6 hrs by telemetry; format: functional, Artery
[17] = Protein binding in rat plasma; format: ADME, cell-free; settings: read-out: PPB (converted)
Cytochrome P450 2D6 = Cytochrome P450 2D6 (Homo sapiens, UniProt P10635); assay: Inhibition of CYP2D6 in human liver microsomes assessed as reduction in dextromethorphan-O demethylation by LC-MS/MS method; format: ADME
[18] = Volume of distribution at steady state in Wistar rat at 10 mg/kg, po or 1 mg/kg, iv; format: ADME, organism-based; settings: in vivo, read-out: Vdss
[19] = Solubility in 0.1M HCl; format: physicochemical
[20] = Distribution coefficient, log D of the compound at pH 7.4; format: physicochemical; settings: octanol/water
[21] = Protein binding in human plasma; format: ADME, cell-free; settings: read-out: PPB
[22] = Rattus norvegicus, Wistar, Heart

T1 sequence (P08684 whole entry): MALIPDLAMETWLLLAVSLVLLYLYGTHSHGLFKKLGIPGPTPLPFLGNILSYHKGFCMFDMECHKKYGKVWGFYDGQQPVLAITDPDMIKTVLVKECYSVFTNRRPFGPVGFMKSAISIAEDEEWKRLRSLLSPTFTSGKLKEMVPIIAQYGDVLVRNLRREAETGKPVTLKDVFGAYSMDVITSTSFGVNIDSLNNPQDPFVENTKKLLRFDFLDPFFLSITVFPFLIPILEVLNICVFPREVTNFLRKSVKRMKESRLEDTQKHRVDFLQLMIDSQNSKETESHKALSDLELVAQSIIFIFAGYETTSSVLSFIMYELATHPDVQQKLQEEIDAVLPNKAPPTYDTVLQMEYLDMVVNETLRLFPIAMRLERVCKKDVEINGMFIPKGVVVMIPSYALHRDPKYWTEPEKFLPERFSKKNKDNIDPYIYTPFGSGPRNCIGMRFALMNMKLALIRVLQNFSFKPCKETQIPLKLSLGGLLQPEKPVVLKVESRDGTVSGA
Chain of Voltage-dependent L-type calcium channel subunit alpha-1C (Q13936 whole entry): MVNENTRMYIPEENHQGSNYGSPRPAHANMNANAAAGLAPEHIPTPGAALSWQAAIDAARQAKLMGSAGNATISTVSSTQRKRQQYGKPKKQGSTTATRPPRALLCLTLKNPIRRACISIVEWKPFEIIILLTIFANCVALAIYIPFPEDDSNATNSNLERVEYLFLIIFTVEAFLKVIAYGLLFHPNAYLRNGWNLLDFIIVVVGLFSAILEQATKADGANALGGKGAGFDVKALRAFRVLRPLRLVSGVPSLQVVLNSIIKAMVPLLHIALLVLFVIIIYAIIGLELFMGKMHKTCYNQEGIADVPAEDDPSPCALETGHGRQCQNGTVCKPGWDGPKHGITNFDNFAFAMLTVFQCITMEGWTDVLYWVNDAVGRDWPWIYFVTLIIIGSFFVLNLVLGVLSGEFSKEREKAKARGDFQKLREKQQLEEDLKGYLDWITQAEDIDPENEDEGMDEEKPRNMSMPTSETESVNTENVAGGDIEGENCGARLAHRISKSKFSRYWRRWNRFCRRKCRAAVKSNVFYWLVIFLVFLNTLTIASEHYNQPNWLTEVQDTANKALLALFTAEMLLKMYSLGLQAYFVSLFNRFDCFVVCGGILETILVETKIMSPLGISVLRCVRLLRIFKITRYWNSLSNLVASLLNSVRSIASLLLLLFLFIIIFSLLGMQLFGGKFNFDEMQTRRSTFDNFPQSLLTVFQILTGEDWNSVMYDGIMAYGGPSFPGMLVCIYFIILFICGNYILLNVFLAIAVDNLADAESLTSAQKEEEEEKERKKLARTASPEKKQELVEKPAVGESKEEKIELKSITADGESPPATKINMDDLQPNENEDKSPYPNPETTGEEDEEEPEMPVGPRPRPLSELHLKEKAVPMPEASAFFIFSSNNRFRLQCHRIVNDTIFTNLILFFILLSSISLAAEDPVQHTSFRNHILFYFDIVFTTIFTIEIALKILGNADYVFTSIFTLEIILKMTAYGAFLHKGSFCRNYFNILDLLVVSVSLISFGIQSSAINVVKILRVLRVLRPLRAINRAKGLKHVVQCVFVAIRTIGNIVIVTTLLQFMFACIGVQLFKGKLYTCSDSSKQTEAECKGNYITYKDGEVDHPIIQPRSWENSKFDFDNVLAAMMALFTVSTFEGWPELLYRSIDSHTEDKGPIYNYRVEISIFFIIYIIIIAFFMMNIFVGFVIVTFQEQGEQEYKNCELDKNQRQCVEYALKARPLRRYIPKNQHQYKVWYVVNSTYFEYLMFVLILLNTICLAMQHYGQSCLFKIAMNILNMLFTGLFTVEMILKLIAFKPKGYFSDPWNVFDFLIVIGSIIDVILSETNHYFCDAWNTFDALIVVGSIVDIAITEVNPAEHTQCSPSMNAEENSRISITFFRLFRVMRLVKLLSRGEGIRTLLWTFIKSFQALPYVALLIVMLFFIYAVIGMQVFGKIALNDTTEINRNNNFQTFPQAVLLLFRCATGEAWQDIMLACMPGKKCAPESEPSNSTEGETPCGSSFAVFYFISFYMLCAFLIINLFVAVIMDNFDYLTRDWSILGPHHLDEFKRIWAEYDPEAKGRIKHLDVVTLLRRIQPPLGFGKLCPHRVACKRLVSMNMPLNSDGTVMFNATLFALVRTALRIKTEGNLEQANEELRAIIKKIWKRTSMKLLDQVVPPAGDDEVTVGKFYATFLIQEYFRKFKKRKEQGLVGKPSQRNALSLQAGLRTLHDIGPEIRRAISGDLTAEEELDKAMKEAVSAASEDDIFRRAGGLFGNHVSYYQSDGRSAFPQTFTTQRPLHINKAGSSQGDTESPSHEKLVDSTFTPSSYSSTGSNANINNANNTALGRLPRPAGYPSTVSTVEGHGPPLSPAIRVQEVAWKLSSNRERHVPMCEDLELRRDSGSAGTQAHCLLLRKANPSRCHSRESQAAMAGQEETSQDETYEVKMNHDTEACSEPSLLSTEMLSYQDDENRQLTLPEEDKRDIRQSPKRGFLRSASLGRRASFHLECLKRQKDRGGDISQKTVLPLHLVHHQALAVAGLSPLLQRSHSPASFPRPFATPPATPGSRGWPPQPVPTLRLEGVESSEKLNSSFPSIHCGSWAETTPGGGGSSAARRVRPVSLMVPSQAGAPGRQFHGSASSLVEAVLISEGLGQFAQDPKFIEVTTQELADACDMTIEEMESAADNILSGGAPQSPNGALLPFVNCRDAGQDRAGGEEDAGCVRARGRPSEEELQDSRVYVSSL
Chain of Voltage-dependent T-type calcium channel subunit alpha-1H (O95180 whole entry, the tested form may be a part): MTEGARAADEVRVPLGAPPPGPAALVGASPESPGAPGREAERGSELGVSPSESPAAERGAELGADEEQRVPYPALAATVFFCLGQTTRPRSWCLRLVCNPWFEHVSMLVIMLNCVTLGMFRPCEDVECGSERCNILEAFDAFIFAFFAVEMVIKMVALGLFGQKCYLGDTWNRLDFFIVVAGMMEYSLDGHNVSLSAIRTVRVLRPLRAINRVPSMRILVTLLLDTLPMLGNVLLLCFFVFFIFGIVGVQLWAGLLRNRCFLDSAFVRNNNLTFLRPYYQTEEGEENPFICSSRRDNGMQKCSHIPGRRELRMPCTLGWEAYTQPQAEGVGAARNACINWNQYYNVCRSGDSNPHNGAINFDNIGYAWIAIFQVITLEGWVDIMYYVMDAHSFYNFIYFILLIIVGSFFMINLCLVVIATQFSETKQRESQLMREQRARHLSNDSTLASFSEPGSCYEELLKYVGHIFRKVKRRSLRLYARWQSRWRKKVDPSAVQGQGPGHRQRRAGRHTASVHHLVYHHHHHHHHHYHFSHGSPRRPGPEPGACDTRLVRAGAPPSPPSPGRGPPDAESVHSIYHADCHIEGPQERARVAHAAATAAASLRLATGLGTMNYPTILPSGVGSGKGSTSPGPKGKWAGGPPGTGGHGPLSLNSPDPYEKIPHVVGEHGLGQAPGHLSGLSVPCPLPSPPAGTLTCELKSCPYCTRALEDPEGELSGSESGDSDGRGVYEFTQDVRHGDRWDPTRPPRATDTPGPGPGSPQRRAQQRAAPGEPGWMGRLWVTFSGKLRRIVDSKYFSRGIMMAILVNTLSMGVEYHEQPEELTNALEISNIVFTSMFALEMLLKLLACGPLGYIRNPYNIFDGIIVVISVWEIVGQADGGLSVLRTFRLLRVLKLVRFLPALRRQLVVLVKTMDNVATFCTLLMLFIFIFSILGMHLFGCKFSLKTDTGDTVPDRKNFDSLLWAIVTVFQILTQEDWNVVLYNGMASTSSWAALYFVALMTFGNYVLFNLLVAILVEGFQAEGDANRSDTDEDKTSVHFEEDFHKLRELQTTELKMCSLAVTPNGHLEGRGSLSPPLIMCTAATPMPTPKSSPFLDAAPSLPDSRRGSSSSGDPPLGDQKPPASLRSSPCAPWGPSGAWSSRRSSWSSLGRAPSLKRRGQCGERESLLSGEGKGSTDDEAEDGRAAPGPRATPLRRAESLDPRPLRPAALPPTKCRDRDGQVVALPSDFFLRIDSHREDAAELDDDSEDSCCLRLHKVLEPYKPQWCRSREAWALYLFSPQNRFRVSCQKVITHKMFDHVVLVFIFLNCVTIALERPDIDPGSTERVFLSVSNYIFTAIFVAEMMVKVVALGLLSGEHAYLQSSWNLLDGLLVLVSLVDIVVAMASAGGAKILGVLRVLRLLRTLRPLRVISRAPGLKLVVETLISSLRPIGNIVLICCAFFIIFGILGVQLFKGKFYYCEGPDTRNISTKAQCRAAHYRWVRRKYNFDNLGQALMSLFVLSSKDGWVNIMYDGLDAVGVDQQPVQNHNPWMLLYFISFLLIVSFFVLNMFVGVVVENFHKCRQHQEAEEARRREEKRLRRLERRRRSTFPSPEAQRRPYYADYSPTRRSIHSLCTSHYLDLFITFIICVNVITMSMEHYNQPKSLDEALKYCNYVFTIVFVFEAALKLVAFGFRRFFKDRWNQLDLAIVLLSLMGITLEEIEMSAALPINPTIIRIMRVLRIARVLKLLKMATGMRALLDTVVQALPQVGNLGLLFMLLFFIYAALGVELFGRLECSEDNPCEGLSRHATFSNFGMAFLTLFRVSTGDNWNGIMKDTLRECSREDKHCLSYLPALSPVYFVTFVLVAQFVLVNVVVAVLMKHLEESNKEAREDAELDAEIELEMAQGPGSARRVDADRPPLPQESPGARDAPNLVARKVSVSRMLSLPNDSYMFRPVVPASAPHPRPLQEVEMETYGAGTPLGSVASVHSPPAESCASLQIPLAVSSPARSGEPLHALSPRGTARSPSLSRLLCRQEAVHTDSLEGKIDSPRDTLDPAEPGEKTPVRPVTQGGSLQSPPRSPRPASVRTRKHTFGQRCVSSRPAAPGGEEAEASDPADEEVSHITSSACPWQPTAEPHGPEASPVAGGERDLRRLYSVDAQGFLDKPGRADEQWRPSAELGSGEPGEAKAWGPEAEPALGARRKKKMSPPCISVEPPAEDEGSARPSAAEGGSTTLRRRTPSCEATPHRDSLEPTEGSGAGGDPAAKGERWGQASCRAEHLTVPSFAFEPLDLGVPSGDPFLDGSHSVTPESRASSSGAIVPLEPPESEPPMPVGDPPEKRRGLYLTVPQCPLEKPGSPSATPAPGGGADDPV

## CC(C)C(=O)O[C@]1(CCN(C)CCCc2nc3ccccc3[nH]2)C[C@H](OCc2ccccc2)c2cc(F)ccc2[C@@H]1C(C)C
[1]
  IC50: 225 nM
[2]
  IC50: 113 nM
Heart; [22]
  EC50: 16 nM

## CO[C@H]1C[C@@](CCN(C)CCCc2nc3ccccc3[nH]2)(OC(=O)C(C)C)[C@@H](C(C)C)c2ccc(F)cc21
[1]
  IC50: 403 nM
[2]
  IC50: 318 nM
Heart; [22]
  EC50: 40 nM

## CC(C)C(=O)O[C@]1(CCN(C)CCCc2nc3ccccc3[nH]2)C[C@@H](OCc2ccccc2)c2cc(F)ccc2[C@@H]1C(C)C
[1]
  IC50: 156 nM
[2]
  IC50: 132 nM
Heart; [22]
  EC50: 20 nM

## CC(C)C(=O)O[C@]1(CCN(C)CCCc2nc3ccccc3[nH]2)C[C@@H](O)c2cc(F)ccc2[C@@H]1C(C)C
[1]
  IC50: 504 nM
[2]
  IC50: 107 nM
Heart; [22]
  EC50: 134 nM

## CC(C)C(=O)O[C@]1(CCN(C)CCCc2nc3ccccc3[nH]2)C[C@H](O)c2cc(F)ccc2[C@@H]1C(C)C
[1]
  IC50: 426 nM
[2]
  IC50: 76 nM
Heart; [22]
  EC50: 38 nM

## CC(C)C(=O)O[C@]1(CCN(C)CCCc2nc3ccccc3[nH]2)C[C@@H]2CC[C@H]1c1ccccc12
[1]
  IC50: 699 nM
[2]
  IC50: 350 nM
Heart
  EC50: > 150 nM

## CC(C)C(=O)O[C@]1(CCN(C)CCCc2nc3ccccc3[nH]2)C[C@@H]2CCC[C@H]1c1ccccc12
[1]
  IC50: 648 nM
[2]
  IC50: 225 nM
Heart; [22]
  EC50: 26 nM

## CC(C)C(=O)O[C@@]1(CCN(C)CCCc2nc3ccccc3[nH]2)C[C@H]2CC[C@@H]1c1ccccc12
[1]
  IC50: 424 nM
[2]
  IC50: 398 nM
Heart; [22]
  EC50: 26 nM

## CC(C)C(=O)O[C@@]1(CCN(C)CCCc2nc3ccccc3[nH]2)C[C@H]2CCC[C@@H]1c1ccccc12
[1]
  IC50: 455 nM
[2]
  IC50: 184 nM
Heart; [22]
  EC50: 22 nM

## COc1cccc2nc(CCCN(C)CC[C@]3(OC(=O)C(C)C)C[C@H]4CCC[C@@H]3c3ccccc34)[nH]c12
Cytochrome P450 3A4 [3]
  IC50: 3000 nM
[4]
  solubility: 119 µg/mL (≈ 236 µM)
[5]
  IC50: < 400 nM
[6]
  Cmax: 64 ng/mL
Cytochrome P450 3A4 [7]
  IC50: 5500 nM
[8]
  solubility: 734 µg/mL (≈ 1460 µM)
[1]
  IC50: 387 nM
[9]
  AUC: 198 ng·h/mL
Cytochrome P450 3A4 [10]
  IC50: 34000 nM
Rattus norvegicus [11]
  Time: 24 h
[12]
  half-life: 2.2 h
[2]
  IC50: 84 nM
[13]
  bioavailability: 7%
[14]
  clearance: 58 mL/min/kg
Cytochrome P450 2C9
  IC50: 32000 nM
Rattus norvegicus [15]
  ABC: 377 mmHg.hr
Rattus norvegicus [16]
  Activity: 35 mmHg
[17]
  fraction unbound: 0.002
Cytochrome P450 2D6
  IC50: 1400 nM
[18]
  Vd: 7.1 L/kg
[19]
  solubility: 681 µg/mL (≈ 1350 µM)
Heart; [22]
  EC50: 7 nM
[20]
  logD: 2.7
[21]
  fraction unbound: < 0.001

## CC(C)C(=O)O[C@]1(CCN(C)CCCc2nc3ccccc3[nH]2)CCc2cc(F)ccc2[C@@H]1C(C)C
[1]
  IC50: 347 nM
[2]
  IC50: 149 nM
Heart; [22]
  EC50: 20 nM

## COCC(=O)O[C@]1(CCN(C)CCCc2nc3ccccc3[nH]2)CC(C)(C)c2cc(F)ccc2[C@@H]1C(C)C
[1]
  IC50: 434 nM
[2]
  IC50: 207 nM

## CCCC[C@@H]1C[C@@](CCN(C)CCCc2nc3ccccc3[nH]2)(OC(=O)COC)[C@@H](C(C)C)c2ccc(F)cc21
[1]
  IC50: 173 nM
[2]
  IC50: 193 nM
Heart; [22]
  EC50: 23 nM

## CO[C@@H]1C[C@@](CCN(C)CCCc2nc3ccccc3[nH]2)(OC(=O)C(C)C)[C@@H](C(C)C)c2ccc(F)cc21
[1]
  IC50: 588 nM
[2]
  IC50: 557 nM
Heart; [22]
  EC50: 29 nM

## COCC(=O)O[C@]1(CCN(C)CCCc2nc3ccccc3[nH]2)C[C@@H]2CC[C@H]1c1ccccc12 (racemic)
[1]
  IC50: 748 nM
[2]
  IC50: 361 nM
Heart; [22]
  EC50: 250 nM

## CC(C)C(=O)O[C@]1(CCN(C)CCCc2nc3ccccc3[nH]2)C[C@@H]2CC[C@H]1c1ccccc12 (racemic)
[1]
  IC50: 533 nM
[2]
  IC50: 432 nM
Heart
  EC50: 42 nM

## CN(CCCc1nc2ccccc2[nH]1)CC[C@@]1(OC(=O)C2CC2)C[C@@H]2CC[C@H]1c1ccccc12 (racemic)
[1]
  IC50: 140 nM
[2]
  IC50: 210 nM
Heart; [22]
  EC50: 77 nM

## CC(C)C(=O)O[C@]1(CCN(C)CCCc2nc3ccccc3[nH]2)C[C@@H]2CCC[C@H]1c1ccccc12 (racemic)
[1]
  IC50: 437 nM
[2]
  IC50: 217 nM
Heart
  EC50: 39 nM

## CO[C@]1(CCN(C)CCCc2nc3ccccc3[nH]2)C[C@@H]2CC[C@H]1c1ccccc12 (racemic)
[1]
  IC50: 2670 nM
[2]
  IC50: 224 nM
Heart; [22]
  EC50: > 300 nM

## CC(C)C(=O)O[C@]1(CCN(C)CCCc2nc3ccccc3[nH]2)C[C@@H]2CC[C@H]1c1nccnc12 (racemic)
[1]
  IC50: > 4600 nM
[2]
  IC50: 2070 nM
Heart; [22]
  EC50: > 1000 nM

## COCC(=O)O[C@]1(CCN(C)CCCc2nc3ccccc3[nH]2)CCc2cc(F)ccc2[C@@H]1C(C)C [MIBEFRADIL]
Rattus norvegicus [15]
  ABC: 437 mmHg.hr
Rattus norvegicus [16]
  Activity: 32 mmHg
Heart; [22]
  EC50: 26 nM
